# Reference: patent US5064947A (priority 1990, dated 1991)
# Where two headings read alike, the source gives them in different places.
# Legend:
# A-2 receptors = details: cited from earlier work
# adenosine A-2 receptors = target: T1, adenosine A-2 receptors (Rattus norvegicus, UniProt P30543); assay: Affinity for brain adenosine A-2 receptors ([3H]NECA displacement, rat brain striatum membranes); assay type: binding
# T1 construct: from tissue; host or cells: striatal membranes of young male rats (C-D strain, from Charles River)
# T1 sequence (P30543 whole entry): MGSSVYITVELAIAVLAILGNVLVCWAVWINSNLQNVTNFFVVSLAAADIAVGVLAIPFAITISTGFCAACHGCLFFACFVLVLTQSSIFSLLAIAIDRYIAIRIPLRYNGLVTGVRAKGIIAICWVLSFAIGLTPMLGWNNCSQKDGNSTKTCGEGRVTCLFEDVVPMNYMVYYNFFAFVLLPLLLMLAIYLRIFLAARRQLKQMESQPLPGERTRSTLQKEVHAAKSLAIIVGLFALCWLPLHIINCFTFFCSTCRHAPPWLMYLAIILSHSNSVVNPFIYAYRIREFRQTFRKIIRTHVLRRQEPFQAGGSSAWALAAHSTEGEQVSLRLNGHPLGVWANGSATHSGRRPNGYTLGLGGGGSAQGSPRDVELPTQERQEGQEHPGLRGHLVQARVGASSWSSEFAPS
# Description: The pellet is finally resuspended in 40 vol. of 50mM Tris-HCl (pH 7.7) per gram of original wet weight of tissue.
# Incubations are carried out at 25° C. for 60 minutes. Each tube is filtered through GF/B glass fiber filters using a vacuum. The filters are rinsed two times with 5 ml of the ice-cold buffer. […] The filters are counted by liquid scintillation spectrometry.
# Specific binding of [3H]NECA is measured as the excess over blanks run in the presence of 100 μM 2-chloroadenosine. […] Specific binding to membranes is about 50% of the total bound.
# Adenosine A-1 receptor = target: T2, Adenosine A-1 receptor (Rattus norvegicus, UniProt P25099)
# T2 sequence (P25099 1-326): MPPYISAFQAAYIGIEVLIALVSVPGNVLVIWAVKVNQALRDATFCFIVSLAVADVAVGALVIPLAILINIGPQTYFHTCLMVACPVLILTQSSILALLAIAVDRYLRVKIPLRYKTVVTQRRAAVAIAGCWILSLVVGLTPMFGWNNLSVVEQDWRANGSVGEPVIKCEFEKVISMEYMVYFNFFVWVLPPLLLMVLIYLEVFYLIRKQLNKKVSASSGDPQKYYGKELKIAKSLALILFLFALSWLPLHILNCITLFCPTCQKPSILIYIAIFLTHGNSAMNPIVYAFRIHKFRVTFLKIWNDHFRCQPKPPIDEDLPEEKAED
# A-1 receptors = details: cited from earlier work
# [1] = in vivo; cited from earlier work
# [2] = ratio of A-2 Ki to A-1 Ki (selectivity)
structure (smiles),measurement,setting,value
Nc1nc(Cl)nc2c1ncn2[C@@H]1O[C@H](CO)[C@@H](O)[C@H]1O [2-chloroadenosine],order of potency at A-2 receptors,A-2 receptors,NECA>2-chloroadenosine>R-PIA>CHA
"CCCOC1=Nc2c(cnn2-c2ccccc2)C2=N[C@@H](Cc3ccccc3)CN12 [Compound 2, (S)-2,7-dihydro-7-phenyl-2-(phenylmethyl)-5-propoxy-3H-imidazo[1,2-c]pyrazolo[4,3-e]pyrimidine]",A-2 Ki/A-1 Ki,adenosine A-2 receptors; [2],0.18
"C1=Nc2c(cnn2-c2ccccc2)C2=N[C@H](Cc3ccccc3)CN12 [Compound 3, (R)-2,7-dihydro-7-phenyl-2-(phenylmethyl)-3H-imidazo[1,2-c]pyrazolo[4,3-e]pyrimidine]",A-2 Ki/A-1 Ki,adenosine A-2 receptors; [2],13.20
"C1=Nc2c(ncn2-c2ccccc2)C2=N[C@H](Cc3ccccc3)CN12 [Compound 6, (R)-7,8-dihydro-3-phenyl-8-(phenylmethyl)-3H-diimidazo[1,2-c:4',5'-e]pyrimidine]",A-2 Ki/A-1 Ki,adenosine A-2 receptors,16.40
"CCCOC1=Nc2c(cnn2-c2ccccc2)C2=N[C@H](C)[C@@H](c3ccccc3)N12 [Compound 7, (2R-trans)-2,7-dihydro-2-methyl-3,7-diphenyl-5-propoxy-3H-Imidazo[1,2-c]pyrazolo[4,3-e]pyrimidine]",A-2 Ki/A-1 Ki,adenosine A-2 receptors; [2],1.17
"CCCOC1=Nc2c(ncn2-c2ccccc2)C2=N[C@@H](Cc3ccccc3)CN12 [Compound 12, (S)-7,8-dihydro-3-phenyl-8-(phenylmethyl)-5-propoxy-3H-diimidazo[1,2-c:4',5'-e]pyrimidine]",Ki,"adenosine A-2 receptors; [3H]NECA, rat brain striatum membranes, 25° C., 60 minutes, read-out: A-2 Receptor Ki",1600 nM
same,A-2 Ki/A-1 Ki,adenosine A-2 receptors; [2],0.18
same,Ki,Adenosine A-1 receptor,9 µM
"OC[C@H]1O[C@@H](n2cnc3c2N=CN2C[C@H](Cc4ccccc4)N=C32)[C@H](O)[C@@H]1O [Compound 13, (S)-7,8-dihydro-3-(β-D-ribofuranosyl)-8-(phenylmethyl)-3H-diimidazo[1,2-c:4',5'-e]pyrimidine]",A-2 Ki/A-1 Ki,adenosine A-2 receptors,1.70
"OC[C@H]1O[C@@H](n2cnc3c2N=CN2C[C@@H](Cc4ccccc4)N=C32)[C@H](O)[C@@H]1O [Compound 14, (R)-7,8-dihydro-3-(β-D-ribofuranosyl)-8-(phenylmethyl)-3H-diimidazo[1,2-c:4',5'-e]pyrimidine]",A-2 Ki/A-1 Ki,adenosine A-2 receptors,5.50
"CCNC(=O)[C@H]1O[C@@H](n2cnc3c(N)ncnc32)[C@H](O)[C@@H]1O [NECA, N-5'-ethylcarboxamidoadenosine]",order of potency at A-2 receptors,A-2 receptors,NECA>2-chloroadenosine>R-PIA>CHA
"CCCn1c(=O)c2[nH]c(-c3ccc(OCC(=O)NCCN)cc3)nc2n(CCC)c1=O [XAC, amino congener of 8-phenyl-1,3-dipropyl-xanthine]",higher affinity for A-1 adenosine receptors vs A-2,A-1 receptors; A-1 brain membranes versus A-2 brain slice assay,40 fold
same,antagonizing the effects of adenosine analogs on heart rate versus blood pressure,[1],much more potent in antagonizing the effects of adenosine analogs on heart rate than on blood pressure
"CCCn1c(=O)c2[nH]c(-c3ccc(OCC(=O)O)cc3)nc2n(CCC)c1=O [XCC, carboxylic acid congener of 8-phenyl-1,3-dipropyl-xanthine]",adenosine receptor selectivity,"A-1 receptors; A-1 vs A-2, in vitro",non-selective
